This experiment has as its system S. aureus ATCC 29213. Kind of experiment: microbe, parasite or virus in culture. Conditions: for Increase of MIC: relative to first passage; for MIC: Staphylococcus aureus. Here is the method: To determine the MICs of CSP-4, a single colony of S. aureus ATCC 29213 was cultured at 37° C in tryptic soy broth, as well as daptomycin and linezolid, which served as commercial antibiotic positive controls. […] For each agent, the MIC was determined daily for 29 days at pH 5.5 and/or for 8 days at pH 7.4 using cells from wells containing half the MIC (1/2 MIC well). […] All MICs were determined in duplicate.

[1] abbreviates: after 8 passages at pH 7.4, 10 mM sodium phosphate buffer, 10% tryptic soy broth.

≈ marks a conversion by molar mass, not a printed value. Where two headings read alike, the source gives them in different places.

Regarding `CCCCCCCCCC(=O)N[C@@H](Cc1c[nH]c2ccccc12)C(=O)N[C@H](CC(N)=O)C(=O)N[C@@H](CC(=O)O)C(=O)N[C@@H]1C(=O)NCC(=O)N[C@@H](CCCN)C(=O)N[C@@H](CC(=O)O)C(=O)N[C@H](C)C(=O)N[C@@H](CC(=O)O)C(=O)NCC(=O)N[C@H](CO)C(=O)N[C@@H]([C@H](C)CC(=O)O)C(=O)N[C@@H](CC(=O)c2ccccc2N)C(=O)O[C@@H]1C` [daptomycin], the “Increase of MIC” value under setting [1] is given as “approximately 1000 ×”. Besides, the “Increase of MIC” value (after 29 passages at pH 5.5) is “over 8000 ×”. The “Increase of MIC following prolonged exposure” value (following prolonged exposure) is ≤ 8000 fold. For the same compound, for the setting “pH 5.5”, the “MIC at start of resistance induction” value turned out to be 0.25 µM and the “Passages over which resistance was induced” value was 24 passages. For the same compound, where the note is “pH 7.4”, the “MIC at start of resistance induction” value worked out at 4 µM and the “Passages after which resistance was induced” value is 5 passages.
On to `CC(=O)NC[C@H]1CN(c2ccc(N3CCOCC3)c(F)c2)C(=O)O1` [linezolid], for which the MIC runs as follows: (ATCC29213, pH 5.5, read-out: MIC at start of resistance induction) 4 µM (≈ 1.35 µg/mL); (ATCC29213, pH 7.4, read-out: MIC at start of resistance induction) 8 µM (≈ 2.7 µg/mL). The “Increase of MIC” value under setting [1] is “approximately 200 ×”. Further, for the setting “pH 5.5”, the “Passages over which resistance was induced” value was 24 passages. Moreover, under “pH 7.4”, the “Passages after which resistance was induced” value turned out to be 5 passages.

The values above are taken from article PMC5884652, “New antimicrobial peptide kills drug-resistant pathogens without detectable resistance” (Oncotarget, 2018).
